Data as given in US8420608B2, “Active substance combinations with insecticides and acaricide properties” (Bayer Cropscience AG, priority 2008, dated 2013).

Legend:
Type in all cases: in vivo
[1] = test system: Spodoptera frugiperda; test: Spodoptera frugiperda larvae test (sprayed cabbage leaves)
Text: (§1) The expected action for a given combination of two active compounds can be calculated as follows, according to S. R. Colby, Weeds 15 (1967), 20-22:
(§2) If • X is the kill rate, expressed as a percentage of the untreated control, when employing active compound A at an application rate of m g/ha or in a concentration of m ppm, • Y is the kill rate, expressed as a percentage of the untreated control, when employing active compound B at an application rate of n g/ha or in a concentration of n ppm and • E is the kill rate, expressed as a percentage of the untreated control, when employing active compounds A and B at application rates of m and n g/ha or in a concentration of m and n ppm, then
(§3) If the actual insecticidal kill rate exceeds the calculated value, the kill of the combination is superadditive, i.e. a synergistic effect is present. In this case, the actually observed kill rate must exceed the value calculated using the above formula for the expected kill rate (E).
(§4) To produce a suitable preparation of active compound, 1 part by weight of active compound is mixed with the stated amounts of solvents and emulsifier, and the concentrate is diluted with emulsifier-containing water to the desired concentration.
Cabbage leaves (Brassica oleracea) are treated by spraying with the active compound preparation of the desired concentration and are populated with larvae of the army worm (Spodoptera frugiperda) while the leaves are still moist.
After the desired period of time, the kill in % is determined. 100% means that all caterpillars have been killed; 0% means that none of the caterpillars have been killed. The kill rates determined are entered into Colby's formula.

[2] = test system: Myzus persicae; test: Myzus persicae test (spray on infested cabbage leaves)
Text: as §1, §2, §3, §4
Cabbage leaves (Brassica oleracea) which are heavily infested by the green peach aphid (Myzus persicae) are treated by spraying with the active compound preparation of the desired concentration.
After the desired period of time, the kill in % is determined. 100% means that all aphids have been killed; 0% means that none of the aphids have been killed. The kill rates determined are entered into Colby's formula.

[3] = test system: Phaedon cochleariae; test: Phaedon cochleariae larvae test (sprayed cabbage leaves)
Text: as §1, §2, §3, §4
Cabbage leaves (Brassica oleracea) are treated by spraying with the active compound preparation of the desired concentration and are populated with larvae of the mustard beetle (Phaedon cochleariae) while the leaves are still moist.
After the desired period of time, the kill in % is determined. 100% means that all beetle larvae have been killed; 0% means that none of the beetle larvae have been killed. The kill rates determined are entered into Colby's formula.

[4] = test system: Tetranychus urticae; test: Tetranychus test (OP-resistant/spray treatment)
Text: as §1, §2, §3
To produce a suitable preparation of active compound, 1 part by weight of active compound is mixed with the stated amounts of solvents and emulsifier, and the concentrate is diluted with emulsifier-containing water to the desired concentration. […]
After the desired period of time, the activity in % is determined. […]

CCC(C)(C)C(=O)OC1=C(c2ccc(Cl)cc2Cl)C(=O)OC12CCCCC2 [spirodiclofen]
Kill in % after 6d ([1]; 0.8 g/ha): 0%

Cc1cc(C)c(C2=C(OC(=O)CC(C)(C)C)C3(CCCC3)OC2=O)c(C)c1 [spiromesifen]
Kill in % after 6d ([2]; 100 g/ha): 50%
Kill in % after 6d ([3]; 4 g/ha): 0%
Kill in % after 6d ([1]; 0.8 g/ha): 0%
Kill in % after 2d ([4]; 4 g/ha): 0%

CCOC(=O)OC1=C(c2cc(C)ccc2C)C(=O)N[C@]12CC[C@@H](OC)CC2 [spirotetramat]
Kill in % after 6d ([2]; 0.8 g/ha): 0%
Kill in % after 2d ([3]; 20 g/ha): 0%
Kill in % after 6d ([1]; 0.8 g/ha): 0%

spinetoram
Kill in % after 6d ([2]; 0.16 g/ha): 0%
Kill in % after 6d ([2]; 20 g/ha): 0%
Kill in % after 6d ([3]; 0.8 g/ha): 50%
Kill in % after 2d ([3]; 4 g/ha): 50%
Kill in % after 6d ([1]; 0.16 g/ha): 83%
Kill in % after 2d ([4]; 0.8 g/ha): 0%
